Assay results reported in ChEMBL document CHEMBL1933036, “Chromenones as potent bradykinin B1 antagonists” (Bioorg Med Chem Lett, 2012).

Assays:
B1 bradykinin receptor [1] = target: T1, B1 bradykinin receptor (Oryctolagus cuniculus, UniProt P48748); assay: Antagonist activity at rabbit B1 bradykinin receptor expressed in CHO cells; assay type: functional, cell-based
T1 sequence (P48748 whole entry): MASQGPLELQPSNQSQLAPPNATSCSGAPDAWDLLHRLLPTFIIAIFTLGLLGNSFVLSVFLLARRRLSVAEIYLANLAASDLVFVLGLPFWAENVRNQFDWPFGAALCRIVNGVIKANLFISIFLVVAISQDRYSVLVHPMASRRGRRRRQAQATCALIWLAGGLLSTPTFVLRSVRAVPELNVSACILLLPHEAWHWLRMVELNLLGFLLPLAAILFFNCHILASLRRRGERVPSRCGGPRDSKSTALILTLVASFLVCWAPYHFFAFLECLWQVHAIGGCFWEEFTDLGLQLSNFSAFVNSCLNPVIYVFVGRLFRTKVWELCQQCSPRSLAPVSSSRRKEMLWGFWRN

B1 bradykinin receptor [2] = target: T2, B1 bradykinin receptor (Homo sapiens, UniProt P46663); assay: Antagonist activity at human B1 bradykinin receptor expressed in CHO cells by aqueorin-based calcium flux assay; assay type: functional, cell-based
T2 sequence (P46663 whole entry): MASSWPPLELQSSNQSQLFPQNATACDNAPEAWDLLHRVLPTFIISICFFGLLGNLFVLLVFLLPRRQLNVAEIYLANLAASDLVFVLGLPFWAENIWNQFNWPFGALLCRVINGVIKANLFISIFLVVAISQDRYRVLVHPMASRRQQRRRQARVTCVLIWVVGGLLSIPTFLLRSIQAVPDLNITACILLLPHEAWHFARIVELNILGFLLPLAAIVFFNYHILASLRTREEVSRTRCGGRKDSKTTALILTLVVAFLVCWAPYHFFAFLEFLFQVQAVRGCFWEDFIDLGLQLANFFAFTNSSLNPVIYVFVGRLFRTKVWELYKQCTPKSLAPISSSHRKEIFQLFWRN

B1 bradykinin receptor [3] = target: T2, B1 bradykinin receptor; assay: Binding affinity to human B1 bradykinin receptor
[4] = Volume of distribution at steady state in rat at 2 mg/kg, iv; assay type: ADME, organism-based; parameters: dose 2 mg/kg, route intravenous; conditions: in vivo, read-out: Vdss
[5] = Oral bioavailability in rat at 5 mg/kg; assay type: ADME, organism-based; conditions: in vivo
Oryctolagus cuniculus = assay: Analgesic activity in New Zealand white rabbit mechanical hyperalgesia model assessed as reduction in carrageenan-induced paw withdrawal at 10 mg/kg, sc administered 60 mins before carrageenan challenge measured after 3 hrs; assay type: functional; parameters: scale not given: the % may be the effect or the level left; conditions: route subcutaneous
[6] = Half life in rat at 2 mg/kg, iv; assay type: ADME, organism-based; parameters: dose 2 mg/kg, route intravenous; conditions: in vivo
[7] = Plasma concentration in New Zealand white rabbit carrageenan-induced mechanical hyperalgesia model at 10 mg/kg, sc administered 60 mins before carrageenan challenge measured after 3 hrs; assay type: ADME, organism-based, Oryctolagus cuniculus; parameters: dose 10 mg/kg, route subcutaneous
[8] = Clearance in rat at 2 mg/kg, iv; assay type: ADME, organism-based; parameters: dose 2 mg/kg, route intravenous; conditions: in vivo
[9] = Oral bioavailability in rat at 2 mg/kg; assay type: ADME, organism-based; conditions: in vivo

IC50 (B1 bradykinin receptor [1]) | IC50 (B1 bradykinin receptor [2]) | Ki (B1 bradykinin receptor [3]) | SMILES | other results
476 nM | 112 nM | – | O=C(N[C@@H]1CCCc2cc(CN3CCCCC3)ccc21)c1cccc(-c2coc3ccccc3c2=O)c1 | –
> 6460 nM | 3400 nM | – | Cc1nn(-c2cccc(C(=O)N[C@@H]3CCCc4cc(CN5CCCCC5)ccc43)c2)c(=O)c2ccccc12 | –
98 nM | 7 nM | 43 nM | Cc1nn(-c2ccc(C(=O)N[C@H]3CCCc4cc(CN5CCCCC5)ccc43)cc2)c(=O)c2ccccc12 | –
248 nM | 17 nM | 29 nM | O=C(N[C@@H]1CCCc2cc(CN3CCCCC3)ccc21)c1cccc(-c2coc3cccc(Cl)c3c2=O)c1 | –
> 160 nM | 279 nM | 767 nM | O=C(N[C@@H]1CCCc2cc(CN3CCCCC3)ccc21)c1cccc(-c2coc3ccc(Cl)cc3c2=O)c1 | –
393 nM | 78 nM | 398 nM | O=C(N[C@@H]1CCCc2cc(CN3CCCCC3)ccc21)c1cccc(-c2coc3ccc(F)cc3c2=O)c1 | –
> 800 nM | 799 nM | – | O=C(N[C@@H]1CCCc2cc(CN3CCCCC3)ccc21)c1cccc(-c2coc3cc(Cl)ccc3c2=O)c1 | –
> 800 nM | 188 nM | 322 nM | O=C(N[C@@H]1CCCc2cc(CN3CCCCC3)ccc21)c1cccc(-c2coc3c(Cl)cccc3c2=O)c1 | –
122 nM | – | – | O=C(N[C@H]1CCCc2cc(CN3CCCCC3)ccc21)c1ccc(-c2coc3ccccc3c2=O)cc1 | –
30 nM | 4 nM | 4 nM | O=C(N[C@H]1CCCc2cc(CN3CCCCC3)ccc21)c1ccc(-c2coc3cccc(Cl)c3c2=O)cc1 | Vd [4]: 6.67 L/kg; bioavailability [5]: 43.6%; Activity (Oryctolagus cuniculus): 65%; half-life [6]: 4.5 h; concentration at 3 h [7]: 379 nM; clearance [8]: 17.7 mL/min/kg
> 4000 nM | > 4000 nM | 1620 nM | O=C(N[C@H]1CCCc2cc(CN3CCCCC3)ccc21)c1ccc(-c2coc3ccc(Cl)cc3c2=O)cc1 | –
> 800 nM | 264 nM | 42 nM | O=C(N[C@H]1CCCc2cc(CN3CCCCC3)ccc21)c1ccc(-c2coc3cc(Cl)ccc3c2=O)cc1 | –
> 4000 nM | 186 nM | 481 nM | O=C(N[C@H]1CCCc2cc(CN3CCCCC3)ccc21)c1ccc(-c2coc3c(Cl)cccc3c2=O)cc1 | –
24 nM | 12 nM | 17 nM | O=C(N[C@H]1CCCc2cc(CN3CCCCC3)ccc21)c1ccc(-c2coc3cccc(F)c3c2=O)cc1 | Vd [4]: 8.83 L/kg; bioavailability [9]: 27.9%; half-life [6]: 3.8 h; clearance [8]: 25.5 mL/min/kg
139 nM | 66 nM | 15 nM | Cc1cccc2occ(-c3ccc(C(=O)N[C@H]4CCCc5cc(CN6CCCCC6)ccc54)cc3)c(=O)c12 | –
